Results as given in the supplement of paper PMC8149375.

Columns and labels:
Settings in all cases: treatment: drug alone; 5 days
CAKI-1 [1] = test: AUC of dose-response viability curve, drug alone (arbitrary (AUC of normalised viability)); higher = less growth inhibition
Experimental: (§1)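 Primary HTS: 8 RCC cell lines treated with 8 doses (up to 10 uM) of each library drug alone for 5 days; viability read by CellTiter-Glo and normalised to DMSO. GI50 was fitted with XLfit (4-parameter), AUC is the area under the dose-response curve, and minimum viability is the lowest fraction of DMSO viability across doses.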

ACHN [2] = test: as above
Experimental: as §1

A498 [3] = test: as above
Experimental: as §1

769-P [4] = test: as above
Experimental: as §1

786-O [5] = test: as above
Experimental: as §1

SN12C [6] = test: as above
Experimental: as §1

TK-10 [7] = test: as above
Experimental: as §1

UO-31 [8] = test: as above
Experimental: as §1

CAKI-1 [9] = test: minimum viability across doses, drug alone, relative to DMSO (fraction); higher = less growth inhibition
Experimental: as §1

ACHN [10] = test: as above
Experimental: as §1

A498 [11] = test: as above
Experimental: as §1

769-P [12] = test: as above
Experimental: as §1

786-O [13] = test: as above
Experimental: as §1

SN12C [14] = test: as above
Experimental: as §1

TK-10 [15] = test: as above
Experimental: as §1

UO-31 [16] = test: as above
Experimental: as §1

CAKI-1 [17] = test: GI50, drug alone; higher = less potent
Experimental: as §1

ACHN [18] = test: GI50, drug alone; higher = less potent
Experimental: as §1

A498 [19] = test: GI50, drug alone; higher = less potent
Experimental: as §1

769-P [20] = test: GI50, drug alone; higher = less potent
Experimental: as §1

786-O [21] = test: GI50, drug alone; higher = less potent
Experimental: as §1

SN12C [22] = test: GI50, drug alone; higher = less potent
Experimental: as §1

TK-10 [23] = test: GI50, drug alone; higher = less potent
Experimental: as §1

UO-31 [24] = test: GI50, drug alone; higher = less potent
Experimental: as §1

Compound	GI50, drug alone (ACHN [18])	GI50, drug alone (786-O [21])	AUC of dose-response viability curve (CAKI-1 [1])	AUC of dose-response viability curve (ACHN [2])	AUC of dose-response viability curve (A498 [3])	AUC of dose-response viability curve (769-P [4])	AUC of dose-response viability curve (786-O [5])	AUC of dose-response viability curve (SN12C [6])	AUC of dose-response viability curve (TK-10 [7])	AUC of dose-response viability curve (UO-31 [8])	minimum viability across doses (CAKI-1 [9])	minimum viability across doses (ACHN [10])	minimum viability across doses (A498 [11])	minimum viability across doses (769-P [12])	minimum viability across doses (786-O [13])	minimum viability across doses (SN12C [14])	minimum viability across doses (TK-10 [15])	minimum viability across doses (UO-31 [16])	GI50, drug alone (CAKI-1 [17])	GI50, drug alone (A498 [19])	GI50, drug alone (769-P [20])	GI50, drug alone (SN12C [22])	GI50, drug alone (TK-10 [23])	GI50, drug alone (UO-31 [24])
CCc1cccc(CC)c1NC(=O)N1Cc2[nH]nc(NC(=O)c3ccc(N4CCN(C)CC4)cc3)c2C1	3.39 µM	0.915 µM	2.76	2.85	3.29	3.41	2.21	2.76	2.92	3.85	0.262	0.233	0.679	0.87	0.0395	0.238	0.336	0.811	2.92 µM	> 10 µM	> 10 µM	2.15 µM	5.38 µM	> 10 µM
Cc1cccc(-c2nc(C(C)(C)C)[nH]c2-c2ccc3nccnc3c2)n1	> 10 µM	> 10 µM	3.35	3.38	3.88	3.25	2.63	3.02	2.9	5.79	0.603	0.87	0.302	0.795	0.589	0.21	0.676	0.569	> 10 µM	9.45 µM	> 10 µM	5.55 µM	> 10 µM	> 10 µM
CC(C)(C)c1cnc(CSc2cnc(NC(=O)C3CCNCC3)s2)o1	0.258 µM	0.134 µM	2.39	1.76	1.58	2.51	1.5	1.69	2.22	1.87	0.0689	0.00527	0.00845	0.0214	0.0038	0.012	0.156	0.0096	0.558 µM	0.147 µM	1.44 µM	0.149 µM	0.501 µM	0.269 µM
O=C1NC(=O)C(c2ccccc2[N+](=O)[O-])=C1Nc1ccc(O)c(Cl)c1	> 10 µM	> 10 µM	3.4	3.39	3.58	3.29	2.33	3.05	3.02	4	0.869	0.879	0.922	0.898	0.559	0.802	0.804	0.634	> 10 µM	> 10 µM	> 10 µM	> 10 µM	> 10 µM	> 10 µM
CCn1c(N)c(C(=O)NC)c(=O)c2ccc(C#C[C@@](C)(O)COC)nc21	> 10 µM	> 10 µM	3.62	3.52	3.88	3.92	3.31	3.44	3.45	4.24	0.845	0.909	0.887	1.02	0.869	0.849	0.9	0.992	> 10 µM	> 10 µM	> 10 µM	> 10 µM	> 10 µM	> 10 µM
CNC(=O)c1nn(C)c2c1C(C)(C)Cc1cnc(Nc3ccc(N4CCN(C)CC4)cc3)nc1-2	0.0953 µM	0.366 µM	1.81	1.53	3.76	2.48	2.22	2.54	2.06	2.64	0.0591	0.0129	0.0273	0.0249	0.00535	0.0145	0.177	0.0155	0.174 µM	4.8 µM	1 µM	0.957 µM	0.311 µM	1.33 µM

The next lines start with results.

GI50, drug alone (ACHN [18])	GI50, drug alone (786-O [21])	Compound	AUC of dose-response viability curve (CAKI-1 [1])	AUC of dose-response viability curve (ACHN [2])	AUC of dose-response viability curve (A498 [3])	AUC of dose-response viability curve (769-P [4])	AUC of dose-response viability curve (786-O [5])	AUC of dose-response viability curve (SN12C [6])	AUC of dose-response viability curve (TK-10 [7])	AUC of dose-response viability curve (UO-31 [8])	minimum viability across doses (CAKI-1 [9])	minimum viability across doses (ACHN [10])	minimum viability across doses (A498 [11])	minimum viability across doses (769-P [12])	minimum viability across doses (786-O [13])	minimum viability across doses (SN12C [14])	minimum viability across doses (TK-10 [15])	minimum viability across doses (UO-31 [16])	GI50, drug alone (CAKI-1 [17])	GI50, drug alone (A498 [19])	GI50, drug alone (769-P [20])	GI50, drug alone (SN12C [22])	GI50, drug alone (TK-10 [23])	GI50, drug alone (UO-31 [24])
0.973 µM	1.24 µM	COc1cc(Nc2ncc(F)c(Nc3ccc4c(n3)N(COP(=O)([O-])[O-])C(=O)C(C)(C)O4)n2)cc(OC)c1OC.[Na+].[Na+]	2.49	2.42	3.85	3.1	2.1	2.73	2.53	4	0.035	0.0693	0.898	0.119	0.125	0.303	0.418	0.0974	1.02 µM	> 10 µM	5.08 µM	3.32 µM	5.18 µM	9.63 µM
0.662 µM	1.9 µM	Cc1cnc(Nc2ccc(OCCN3CCCC3)cc2)nc1Nc1cccc(S(=O)(=O)NC(C)(C)C)c1	2.54	2.25	3.49	3.09	2.76	2.71	2.19	3.79	0.00962	0.00347	0.0772	0.0319	0.00721	0.00707	0.00422	0.013	1.03 µM	5.64 µM	3.4 µM	2.31 µM	0.758 µM	2.74 µM
0.0547 µM	5.22 µM	Cc1[nH]c(/C=C2/C(=O)Nc3ccc(S(=O)(=O)N(C)c4cccc(Cl)c4)cc32)c(C)c1C(=O)N1CCN(C)CC1	3.3	2.06	3.89	3.4	2.76	3.01	3.36	4.97	0.425	0.247	0.916	0.763	0.265	0.412	0.753	1.15	8.22 µM	> 10 µM	> 10 µM	8.02 µM	> 10 µM	> 10 µM
5.79 µM	2.47 µM	Nc1nc(N)c2nc(-c3cccc(O)c3)cnc2n1	3.43	3.02	3.31	3.59	2.45	2.97	2.98	4.59	0.275	0.35	0.252	0.971	0.0664	0.254	0.32	0.588	6.29 µM	9.22 µM	> 10 µM	3.88 µM	5.11 µM	> 10 µM
